Laboratory results reported in US5157052A, “Method for inhibiting IgE production” (priority 1990, dated 1992).

Experiments:
Thy 1 = experiment: Splenocyte cell surface density/distribution (FACS): Thy 1; type: in vivo, mouse (Balb/c female)
Protocol: Another (Group B) is injected with 20 μg (±) methyl 11α,16-dihydroxy-16-methyl-9-oxoprosta-5Z,13E-dien-1-oate as in Example 13. […] A 3 cm incision is made with a scalpel above the left hip, and the spleen is cut free from adjoining tissue and placed in a 100 mn plastic culture dish containing 10 ml PBS. The splenic cells are then made into a suspension, by rubbing the spleens between the rough, frosted ends of microscope slides repeatedly until the only remaining particulate matter is connective tissue. Cells are transferred to a 15 ml conical polystyrene tube and centrifuged in a centrifuge at 1200 rpm for 5 minutes. The supernatant is discarded by aspiration and the cell pellet is resuspended in 10 ml PBS, then centrifuged at 1200 rpm for 5 minutes. The supernatant is aspirated and the cell pellet is resuspended in 15 mM Tris, 140 mM Ammonium Chloride, to lyse red blood cells. After incubating at room temperature for 10 minutes the cell suspension is centrifuged at 1200 rpm for 10 minutes. The supernatant is discarded and the cell pellet is resuspended in 10 ml FACS Buffer (PBS containing 0.1% BSA and 0.1% Sodium Azide). The cell suspension is filtered through sterile glass wool plugged in the top of a pasteur pipet. Cells in the flow through are counted using a hemacytometer, then the cell suspension is centrifuged at 1200 rpm for 5 minutes. The supernatant is discarded and the cell pellet is resuspended in a volume of FACS Buffer that will yield 4×10^7 cells/ml. 10 μl (4×10^5 cells) is added to each well of a 96-well V-bottom plate. 25 μl of diluted monoclonal antibody directed against splenocyte cell surface proteins is added to each well: Major Histocompatability Complex (MHC) Class II (M5114, ATCC, Rockville Md.), MHC Class I (M1/42, ATCC), Anti-IgD (JA12.5, ATCC, Rockville, Md.), Thymocyte (Thy)-1 (JIJ, ATCC), B220 (14.8, ATCC), Kappa light chain (187, ATCC), IL-2 Receptor (7D4, ATCC), Lyt-1 (7.313, ATCC) and CD23 (biotinylated B3B4) and incubated on ice for 30 minutes. 100 μl 10% BSA 0.1% sodium azide is added to each well, then the plates are centrifuged at 1200 rpm for 10 minutes. The liquid is removed by aspiration and the cell pellets are resuspended in 100 μl FACS Buffer, and centrifuged at 1200 rpm for 5 minutes. […] Samples are transferred to individual tubes and 10,000 cells are analyzed. Using the Lysis software (Becton Dickinson, Mountain View, Calif.) the mean channel log fluorescence and percent positive cells are determined for the entire cell population. […]

IgG1 = experiment: Serum IgG1 in anti-IgD stimulated mice (two site sandwich ELISA, Assay B); type: in vivo, mouse (Balb/c female)

CCCCC(C)(O)C/C=C/[C@H]1[C@H](O)CC(=O)[C@@H]1C/C=C\CCCC(=O)OC (mixture of isomers) [(±) methyl 11α,16-dihydroxy-16-methyl-9-oxoprosta-5Z,13E-dien-1-oate]
Percentage Positive Cells (Thy 1; anti-IgD stimulated mice, 20 μg days 3 and 4, day 7 (PBS 14.3)): 23 ± 10%
Mean Channel Log Fluorescence (Thy 1; anti-IgD stimulated mice, 20 μg days 3 and 4, day 7 (PBS 97)): 98 ± 0
Percentage Positive Cells (Thy 1; unstimulated mice, 20 μg (PBS 9.3)): 25.4 ± 3%
Mean Channel Log Fluorescence (Thy 1; unstimulated mice, 20 μg (PBS 91)): 92 ± 3
IgG1 ± SD (IgG1; 2 μg IP days 3 and 4, day 7 (control 4808)): 3220 ± 985 µg/mL
IgG1 ± SD (IgG1; 2 μg IP days 3 and 4, day 8 (control 13818)): 12947 ± 2195 µg/mL
IgG1 ± SD (IgG1; 2 μg IP days 3 and 4, day 9 (control 17700)): 19938 ± 3279 µg/mL
IgG1 ± SD (IgG1; 2 μg IP days 3 and 4, day 11 (control 17100)): 17589 ± 1923 µg/mL
IgG1 ± SD (IgG1; 2 μg IP days 3 and 4, day -1 baseline before treatment): 215 ± 124 µg/mL
IgG1 ± SD (IgG1; 5 μg IP days 3 and 4, day 7): 6902 ± 3604 µg/mL
IgG1 ± SD (IgG1; 5 μg IP days 3 and 4, day 8): 18202 ± 5327 µg/mL
IgG1 ± SD (IgG1; 5 μg IP days 3 and 4, day 9): 27069 ± 3257 µg/mL
IgG1 ± SD (IgG1; 5 μg IP days 3 and 4, day 11): 23205 ± 6506 µg/mL
IgG1 ± SD (IgG1; 5 μg IP days 3 and 4, day -1 baseline before treatment): 248 ± 189 µg/mL
IgG1 ± SD (IgG1; 10 μg IP days 3 and 4, day 7): 6952 ± 3410 µg/mL
IgG1 ± SD (IgG1; 10 μg IP days 3 and 4, day 8): 17649 ± 3158 µg/mL
IgG1 ± SD (IgG1; 10 μg IP days 3 and 4, day 9): 26978 ± 11752 µg/mL
IgG1 ± SD (IgG1; 10 μg IP days 3 and 4, day 11): 26361 ± 6660 µg/mL
IgG1 ± SD (IgG1; 10 μg IP days 3 and 4, day -1 baseline before treatment): 166 ± 14 µg/mL
IgG1 ± SD (IgG1; 20 μg IP days 3 and 4, day 7): 6816 ± 3349 µg/mL
IgG1 ± SD (IgG1; 20 μg IP days 3 and 4, day 8): 16838 ± 4174 µg/mL
IgG1 ± SD (IgG1; 20 μg IP days 3 and 4, day 9): 23900 ± 11791 µg/mL
IgG1 ± SD (IgG1; 20 μg IP days 3 and 4, day 11): 24998 ± 7169 µg/mL
IgG1 ± SD (IgG1; 20 μg IP days 3 and 4, day -1 baseline before treatment): 255 ± 66 µg/mL
IgG1 ± SD (IgG1; 40 μg IP days 3 and 4, day 7): 5168 ± 2391 µg/mL
IgG1 ± SD (IgG1; 40 μg IP days 3 and 4, day 9): 24337 ± 4729 µg/mL
IgG1 ± SD (IgG1; 40 μg IP days 3 and 4, day 11): 25930 ± 4376 µg/mL
